According to patent publication US9045468B2, “2,5-methano- and 2,5-ethano-tetrahydrobenzazepine derivatives and use thereof to block reuptake of norepinephrine, dopamine, and serotonin” (Albany Molecular Research, Inc., priority 2010, dated 2015):

Tests used:
hSERT = hSERT (Homo sapiens (Human), UniProt P31645); test: SERT radioligand binding assay ([125I]RTI-55, HEK-293 membranes); conditions: recombinant HEK-293 membranes, [125I]RTI-55; read-out: Binding Affinity (IC50, nM) SERT
Procedure: (§1) The medium was removed from the flasks and the cells rinsed with HBSS without Ca and without Mg. The cells were then incubated for 5-10 minutes in 10 mM Tris-Cl, pH 7.5, 5 mM EDTA before the cells were lifted with a combination of pipetting and scraping, as needed. The cell suspension was collected into centrifuge bottles and homogenized for 30 seconds with a Polytron homogenizer. The suspension was centrifuged for 30 minutes at 32,000×g, 4° C. The supernatant was decanted and the pellet resuspended and homogenized in 50 mM Tris-Cl, pH 7.5, 1 mM EDTA for 10 seconds. The suspension was then centrifuged again for 30 minutes at 32,000×g, 4° C. The supernatant was decanted and the pellet resuspended in 50 mM Tris-Cl, pH 7.5, 1 mM EDTA and briefly homogenized. A Bradford assay (Bio-rad) was performed and the membrane preparation diluted to 2 mg/ml with 50 mM Tris-Cl, pH 7.5, 1 mM EDTA. Aliquots were prepared, and then frozen and stored at −80° C.
Compounds were dissolved in 100% DMSO at a concentration 100 times the desired highest assay concentration, serially diluted 1:3 in 100% DMSO, and 0.4 μl/well of each solution was dispensed to a Nunc polypropylene, round bottom, 384-well plate. […] The contents of the assay plate were then transferred to a Millipore MultiscreenHTS GF/B filter plate which was pretreated with 0.5% PEI for at least one hour. The plate was vacuum filtered and washed with 7 washes of […] 50 mM Tris-Cl, pH 7.5, 120 mM NaCl, 5 mM KCl chilled to 4° C. The filtration and washing were completed in less than 90 seconds. The plates were air-dried overnight, 12 μl/well of MicroScint scintillation fluid added, and the plates counted in a Trilux.
(§2) Each plate was run in triplicate, and the concentration response curve thus generated was fit using the four-parameter dose response equation, Y=Bottom+(Top-Bottom)/(1+10^((Log IC50−X)*HillSlope)) in order to determine the IC50 value for each compound. The radioligand concentration chosen for each assay corresponds to the Kd concentration determined through saturation binding analysis for each assay.

hNET = hNET (Homo sapiens (Human), UniProt P23975); test: NET radioligand binding assay ([3H]nisoxetine, HEK-293 membranes); conditions: recombinant HEK-293 membranes, [3H]nisoxetine; read-out: Binding Affinity (IC50, nM) NET
Sequence of hNET (P23975 whole entry): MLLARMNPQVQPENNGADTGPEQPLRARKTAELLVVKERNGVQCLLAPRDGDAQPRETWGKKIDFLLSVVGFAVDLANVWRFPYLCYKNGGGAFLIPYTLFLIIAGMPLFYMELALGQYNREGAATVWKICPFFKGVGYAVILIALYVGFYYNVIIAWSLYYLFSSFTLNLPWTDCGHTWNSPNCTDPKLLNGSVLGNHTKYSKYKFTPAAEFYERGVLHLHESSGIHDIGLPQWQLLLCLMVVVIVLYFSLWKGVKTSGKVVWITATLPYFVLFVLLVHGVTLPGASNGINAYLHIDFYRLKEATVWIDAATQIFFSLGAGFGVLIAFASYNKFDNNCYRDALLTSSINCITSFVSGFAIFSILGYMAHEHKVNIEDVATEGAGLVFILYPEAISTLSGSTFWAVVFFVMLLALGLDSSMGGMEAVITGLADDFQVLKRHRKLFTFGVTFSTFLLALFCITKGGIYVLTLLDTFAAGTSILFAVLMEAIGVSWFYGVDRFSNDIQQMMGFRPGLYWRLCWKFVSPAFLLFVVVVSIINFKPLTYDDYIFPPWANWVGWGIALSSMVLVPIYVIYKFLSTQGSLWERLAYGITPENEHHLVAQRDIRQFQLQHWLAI
Procedure: as §1
Compounds were dissolved in 100% DMSO at a concentration 100 times the desired highest assay concentration, serially diluted 1:3 in 100% DMSO, and 1.0 μl/well of each solution was dispensed to a Nunc polypropylene, round bottom, 384-well plate. […] 50 μl/well of a 2× membrane preparation (0.4 mg/ml in 50 mM Tris-Cl, pH 7.5, 120 mM NaCl, 5 mM KCl) and 50 μl/well of a 2× radioligand solution (4 nM [^3H]nisoxetine in 50 mM Tris-Cl, pH 7.5, 120 mM NaCl, 5 mM KCl) were added to the well and the reaction incubated for 1 hour at room temperature. The contents of the assay plate were then transferred to a Millipore MultiscreenHTS GF/B filter plate which was pretreated with 0.5% PEI for at least one hour. The plate was vacuum filtered and washed with 7 washes of 100 μl/well 50 mM Tris-Cl, pH 7.5, 120 mM NaCl, 5 mM KCl chilled to 4° C. The filtration and washing were completed in less than 90 seconds. The plates were air-dried overnight, 12 μl/well of MicroScint scintillation fluid added, and the plates counted in a Trilux.
as §2

hDAT = hDAT (Homo sapiens (Human), UniProt Q01959); test: DAT radioligand binding assay ([125I]RTI-55, HEK-293 membranes); conditions: recombinant HEK-293 membranes, [125I]RTI-55; read-out: Binding Affinity (IC50, nM) DAT
Sequence of hDAT (Q01959 whole entry): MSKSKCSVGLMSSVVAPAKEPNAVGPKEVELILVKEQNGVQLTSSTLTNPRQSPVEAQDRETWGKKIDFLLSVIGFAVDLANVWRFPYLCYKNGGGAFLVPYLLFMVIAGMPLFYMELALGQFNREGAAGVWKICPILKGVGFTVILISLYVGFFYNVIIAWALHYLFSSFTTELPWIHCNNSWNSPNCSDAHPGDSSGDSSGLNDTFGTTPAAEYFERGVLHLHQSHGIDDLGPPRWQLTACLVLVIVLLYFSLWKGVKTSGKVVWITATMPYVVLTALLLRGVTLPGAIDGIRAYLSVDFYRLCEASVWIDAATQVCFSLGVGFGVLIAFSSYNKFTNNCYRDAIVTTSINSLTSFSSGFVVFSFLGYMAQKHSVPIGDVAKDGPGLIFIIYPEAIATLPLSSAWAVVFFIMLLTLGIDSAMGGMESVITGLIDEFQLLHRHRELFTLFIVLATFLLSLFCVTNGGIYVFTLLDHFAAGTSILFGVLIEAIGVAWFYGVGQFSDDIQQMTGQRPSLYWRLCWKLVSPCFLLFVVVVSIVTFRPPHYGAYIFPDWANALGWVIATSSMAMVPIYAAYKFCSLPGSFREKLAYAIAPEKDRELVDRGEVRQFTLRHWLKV
Procedure: as §1, with “Recombinant HEK-293 cells expressing either the hSERT, hDAT, or hNET proteins were harvested from T-175 flasks as follows. The medium” for “The medium”
Compounds were dissolved in 100% DMSO at a concentration 100 times the desired highest assay concentration, serially diluted 1:3 in 100% DMSO, and 0.4 μl/well of each solution was dispensed to a Nunc polypropylene, round bottom, 384-well plate. […] 20 ul/well of a 2× membrane preparation (12.5 μg/ml in 30 mM sodium phosphate buffer, pH 7.9 at 4° C.) and 20 μl/well of a 2× radioligand solution (250 pM [^125I]RTI-55 in 30 mM sodium phosphate buffer, pH 7.9 at 4° C.) were added to the well and the reaction incubated for 1 hour at room temperature. The contents of the assay plate were then transferred to a Millipore MultiscreenHTS GF/B filter plate which was pretreated with 0.5% PEI for at least one hour. The plate was vacuum-filtered and washed with 7 washes of 100 μl/well 50 mM Tris-Cl, pH 7.5, 120 mM NaCl, 5 mM KCl chilled to 4° C. The filtration and washing were completed in less than 90 seconds. The plates were air-dried overnight, 12 μl/well of MicroScint scintillation fluid added, and the plates counted in a Trilux.
as §2

SERT = test: Ex vivo transporter occupancy assay, SERT ([3H]citalopram, brain tissue); assay type: in vivo; conditions: dosed orally, 3 mg/kg, time until sacrifice 3 h
Text: (§3) The general procedure for brain tissue collection and transporter occupancy assessment is briefly described as follows. Mice were sacrificed by asphyxiation in CO2, rats by decapitation and dogs by IV injection of euthanasia solution. For mice and rats, after the brains were removed from the skull, the forebrain tissue (removal of the brainstem and cerebellum) was used for SERT, NET, and DAT occupancy assessment. In dogs, the striatum was dissected for DAT occupancy and the remaining forebrain tissue (without the striatum, brainstem, and cerebellum) was used for SERT and NET occupancy assessment. The brain tissues were frozen in chilled isopentane and stored at −80° C. until homogenization.
(§4) The brain tissues were thawed and then homogenized using a polytron homogenizer (Kinematica). Sample aliquots were frozen immediately and stored at −80° C. Protein content was measured for each sample using a Coomassie protein assay kit (Pierce).
(§5) On the day of ex vivo binding for occupancy assessment, frozen sample aliquots were thawed and needle homogenized, and 100 μg of the tissue was incubated for SERT, NET, and DAT binding under assay conditions summarized in Table 1. After incubation, the reactions were terminated by the addition of ice-cold assay buffer and rapid filtration through a Brandel Cell Harvester using FPXLR-196 filters. The filters were washed twice with ice-cold incubation buffer, punched into a clear plate prior to the addition of 200 ul scintillation fluid per well. Radioligand was measured using a Wallac Microbeta liquid scintillation counter.
(§6) The specific binding was calculated by subtracting the value of the non-specific binding from that of the total binding in each sample. The percent occupancy was calculated as (1−specific binding in drug treated/specific binding in vehicle treated)×100%. […] Nonlinear regression was performed using GraphPad Prism version 3.00 (GraphPad Software, San Diego, Calif.).

NET = test: Ex vivo transporter occupancy assay, NET ([3H]nisoxetine, brain tissue); assay type: in vivo; conditions: dosed orally, 3 mg/kg, time until sacrifice 3 h
Text: as §3, §4
as §5, with “After incubation, the reactions were terminated by the addition of ice-cold assay buffer and rapid filtration through a Brandel Cell Harvester using FPXLR-196 filters.” left out
as §6

Sequence of hSERT (P31645 whole entry): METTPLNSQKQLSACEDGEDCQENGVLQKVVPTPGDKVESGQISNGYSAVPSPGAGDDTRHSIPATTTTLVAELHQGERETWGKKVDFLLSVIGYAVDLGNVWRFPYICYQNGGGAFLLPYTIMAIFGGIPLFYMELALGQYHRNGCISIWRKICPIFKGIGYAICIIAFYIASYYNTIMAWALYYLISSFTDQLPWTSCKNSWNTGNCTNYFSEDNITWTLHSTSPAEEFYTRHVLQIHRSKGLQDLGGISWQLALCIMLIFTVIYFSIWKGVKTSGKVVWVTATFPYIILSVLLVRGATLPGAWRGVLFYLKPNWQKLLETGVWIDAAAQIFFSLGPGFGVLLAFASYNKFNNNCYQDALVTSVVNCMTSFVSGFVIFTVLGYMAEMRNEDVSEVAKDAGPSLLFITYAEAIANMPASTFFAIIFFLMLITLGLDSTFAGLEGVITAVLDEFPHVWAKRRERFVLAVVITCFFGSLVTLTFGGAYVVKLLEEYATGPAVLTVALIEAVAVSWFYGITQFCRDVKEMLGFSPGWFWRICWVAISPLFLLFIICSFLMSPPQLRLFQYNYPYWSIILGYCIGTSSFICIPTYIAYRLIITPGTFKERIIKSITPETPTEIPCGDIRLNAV

Q: With `Clc1ccc(C23CCN(CC2)Cc2cc(-c4ccc5ncnn5c4)ccc23)cc1Cl` [Example 37, 8-([1,2,4]triazolo[1,5-a]pyridin-6-yl)-5-(3,4-dichlorophenyl)-2,5-ethano-2,3,4,5-tetrahydro-1H-benzo[c]azepine] as the compound, how does the IC50 (hSERT) read?
A: 8.6 nM

Q: What about the IC50 (hNET) of the same compound?
A: 119 nM

Q: What about the IC50 (hDAT) of the same compound?
A: 18.5 nM

Q: With `FC(F)Oc1ccc(-c2ccc3c(c2)CN2CCC3(c3ccc(Cl)c(Cl)c3)CC2)nn1` [Example 39, 5-(3,4-dichlorophenyl)-8-(6-(difluoromethoxy)pyridazin-3-yl)-2,5-ethano-2,3,4,5-tetrahydro-1H-benzo[c]azepine] as the compound, how does the IC50 (hSERT) read?
A: 3.8 nM

Q: And the IC50 (hNET)?
A: 53.5 nM

Q: What about the “% Occupancy SERT” value (SERT) of the same compound?
A: 59%

Q: What about the “% Occupancy NET” value (NET) of the same compound?
A: 41%

Q: What about the IC50 (hDAT) of the same compound?
A: 26.1 nM

Q: Which IC50 (hSERT) does the source give for `COc1ccc(-c2ccc3c(c2)CN2CCC3(c3ccc(Cl)c(Cl)c3)CC2)nn1` [Example 40, 5-(3,4-dichlorophenyl)-8-(6-methoxypyridazin-3-yl)-2,5-ethano-2,3,4,5-tetrahydro-1H-benzo[c]azepine] here?
A: 9.8 nM

Q: What about the IC50 (hNET) of the same compound?
A: 148 nM

Q: And the IC50 (hDAT)?
A: 5.9 nM

Q: Which results are given for `Oc1ccc(-c2ccc3c(c2)CN2CCC3(c3ccc(Cl)c(Cl)c3)CC2)nn1` [Example 41, 6-(5-(3,4-dichlorophenyl)-2,5-ethano-2,3,4,5-tetrahydro-1H-benzo[c]azepin-8-yl)pyridazin-3-ol]?
A: IC50 (hSERT): 5 nM; IC50 (hNET): 79.2 nM; IC50 (hDAT): 5.1 nM

Q: With `Cc1cc2ncnn2cc1-c1ccc2c(c1)CN1CCC2(c2ccc(Cl)c(Cl)c2)CC1` [Example 43, 5-(3,4-dichlorophenyl)-2,5-ethano-8-(7-methyl-[1,2,4]triazolo[1,5-a]pyridin-6-yl)-2,3,4,5-tetrahydro-1H-benzo[c]azepine] as the compound, how does the IC50 (hSERT) read?
A: 18.9 nM

Q: And the IC50 (hNET)?
A: 373 nM

Q: What about the IC50 (hDAT) of the same compound?
A: 43.8 nM

Q: Which results are given for `Clc1ccc(C23CCN(CC2)Cc2cc(Oc4cnccn4)ccc23)cc1Cl` [Example 44, 5-(3,4-dichlorophenyl)-2,5-ethano-8-(pyrazin-2-yloxy)-2,3,4,5-tetrahydro-1H-benzo[c]azepine]?
A: IC50 (hSERT): 4.7 nM; IC50 (hNET): 161 nM; IC50 (hDAT): 33.9 nM

Q: What does the source list for `FC(F)Oc1ccc2c(c1)CN1CCC2(c2ccc(Cl)c(Cl)c2)CC1` [Example 46, 5-(3,4-dichlorophenyl)-2,5-ethano-8-(difluoromethoxy)-2,3,4,5-tetrahydro-1H-benzo[c]azepine]?
A: IC50 (hSERT): 3 nM; IC50 (hNET): 140 nM; IC50 (hDAT): 55.2 nM

Q: For `FC(F)(F)c1ccc(Oc2ccc3c(c2)CN2CCC3(c3cccc(Cl)c3)CC2)nn1` [Example 49, 5-(3-chlorophenyl)-2,5-ethano-8-(6-(trifluoromethyl)pyridazin-3-yloxy)-2,3,4,5-tetrahydro-1H-benzo[c]azepine], which IC50 (hSERT) is on record?
A: 24.2 nM

Q: And the IC50 (hNET)?
A: 451 nM

Q: And the IC50 (hDAT)?
A: 55.9 nM

Q: For `FC(F)(F)c1ccc(C23CCN(CC2)Cc2cc(Oc4ccc(C(F)(F)F)nn4)ccc23)cc1` [Example 50, 2,5-ethano-5-(4-(trifluoromethyl)phenyl)-8-(6-(trifluoromethyl)pyridazin-3-yloxy)-2,3,4,5-tetrahydro-1H-benzo[c]azepine], which IC50 (hSERT) is on record?
A: 10.9 nM

Q: What about the IC50 (hNET) of the same compound?
A: 1050 nM

Q: What about the IC50 (hDAT) of the same compound?
A: 614 nM

Q: For `Fc1ccc(C23CCN(CC2)Cc2cc(Oc4ccc(C(F)(F)F)nn4)ccc23)cc1F` [Example 51, 5-(3,4-difluorophenyl)-2,5-ethano-8-(6-(trifluoromethyl)pyridazin-3-yloxy)-2,3,4,5-tetrahydro-1H-benzo[c]azepine], which IC50 (hSERT) is on record?
A: 20.2 nM

Q: And the IC50 (hNET)?
A: 231 nM

Q: What about the IC50 (hDAT) of the same compound?
A: 63.2 nM

Q: How did the IC50 (hSERT) turn out when `Fc1ccc(C23CCN(CC2)Cc2cc(Oc4ccc(C(F)(F)F)nn4)ccc23)cc1` [Example 52, 5-(4-fluorophenyl)-2,5-ethano-8-(6-(trifluoromethyl)pyridazin-3-yloxy)-2,3,4,5-tetrahydro-1H-benzo[c]azepine] was run?
A: 8.9 nM

Q: And the IC50 (hNET)?
A: 206 nM

Q: And the IC50 (hDAT)?
A: 42.8 nM

Q: What does the source list for `Fc1ccc(C23CCN(CC2)Cc2cc(-c4ccc(C(F)(F)F)nn4)ccc23)cc1Cl` [Example 53, 5-(3-chloro-4-fluorophenyl)-2,5-ethano-8-(6-(trifluoromethyl)pyridazin-3-yl)-2,3,4,5-tetrahydro-1H-benzo[c]azepine]?
A: IC50 (hSERT): 2.1 nM; IC50 (hNET): 345 nM; IC50 (hDAT): 120 nM

Q: What does the source list for `Fc1ccc(C23CCN(CC2)Cc2cc(-c4ccc5ncnn5c4)ccc23)cc1Cl` [Example 54, 8-([1,2,4]triazolo[1,5-a]pyridin-6-yl)-5-(3-chloro-4-fluorophenyl)-2,5-ethano-2,3,4,5-tetrahydro-1H-benzo[c]azepine]?
A: IC50 (hSERT): 4.4 nM; IC50 (hNET): 541 nM; IC50 (hDAT): 78 nM
